Among the data in patent publication EP0356223A2, “HIV protease inhibitors useful for the treatment of aids” (MERCK & CO. INC., priority 1988, dated 1990) are IC50 values, retold here.

The IC50 is the concentration that gives 50% inhibition. A higher IC50 goes with weaker potency.

Each structure is given as a SMILES string.

The assay has as its target T1, HIV protease (Human immunodeficiency virus type 1 group M subtype B, UniProt P04585).
T1 construct: the protease expressed in Eschericia coli; made in house; host or cells: Escherichia coli
Put plainly: Assay for Inhibition of Microbial Expressed Viral Protease. The class given is biochemical. Particulars: protease expressed in Eschericia coli; peptide substrate Val-Ser-Gln-Asn-(betanapthyl)Ala-Pro-lie-Val 0.5 mg/ml; 50 mM Na acetate, pH 5.5, 30° C, 1 hr; HPLC readout. As to the method: Assay for Inhibition of Microbial Expressed Viral Protease
Inhibition studies of the reaction of the protease expressed in Eschericia coli with a peptide substrate [Val-Ser-Gln-Asn-(betanapthyl)Ala-Pro-lie-Val, 0.5 mg/ml at the time the reaction is initiated] were in 50 mM Na acetate, pH 5.5, at 30° C for 1 hr. Various concentrations of inhibitor in 1.0 ul DMSO were added to 25 ul of the peptide solution in water. The reaction is initiated by the addition of 15 ul of 0.33 nM protease (0.11 ng) in a solution of 0.133 M Na acetate pH 5.5 and 0.267% bovine serum albumin. The reaction was quenched with 160 ul of 5% phosphoric acid. Products of the reaction were separated by HPLC (VYDAC wide pore 5 cm C-18 reverse phase, acetonitrile gradient, 0.1% phosphoric acid). The extent of inhibition of the reaction was determined from the peak heights of the products.

For the molecule `CS(=O)(=O)N[C@@H](Cc1ccccc1)[C@@H](O)C[C@@H](Cc1ccccc1)C(=O)N[C@H]1c2ccccc2C[C@H]1O` [Compound H, N-(2(R)-hydroxy-1 (S)-indanyl)-N'-(methanesulfonyl)-5(S)-amino-4(S)-hydroxy-6-phenyl-2(R)-(phenylmethyl)-hexanamide], the IC50 fell in the range of 0.5 to 10 nM. In turn, `O=C1CC[C@@H](C(=O)N[C@@H](Cc2ccccc2)[C@@H](O)C[C@@H](Cc2ccccc2)C(=O)N[C@H]2c3ccccc3C[C@H]2O)O1` [Compound J, N-(2(R)-hydroxy-1 (S)-indanyl)-N'-(5-oxo-2(S)-tetrahydrofuranylcarbonyl)-5(S)-amino-4(S)-hydroxy-6-phenyl-2(R)-(phenylmethyl)hexanamide] displayed an IC50 of 0.5 to 10 nM. To `CC[C@H](C)[C@H](NC(=O)[C@H](Cc1ccccc1)C[C@H](O)[C@H](Cc1ccccc1)NC(=O)CCC(=O)O)C(=O)NCc1ccccc1` [Compound F, N-benzyl-N'-(succinoyl)-5(S)-amino-4(S)-hydroxy-6-phenyl-2(R)-(phenylmethyl)hexanoyl isoleucyl amide] belongs 0.5 to 10 nM; to `O=C(O)CCC(=O)N[C@@H](Cc1ccccc1)[C@@H](O)C[C@@H](Cc1ccccc1)C(=O)N[C@H]1c2ccccc2C[C@H]1O` [Compound G, N-(2(R)-hydroxy-1 (S)-indanyl)-N'-(succinoyl)-5(S)-amino-4(S)-hydroxy-6-phenyl-2(R)-(phenylmethyl)-hexanamide], 0.5 to 10 nM.
